# Data taken from patent publication US11718604B2, “4-amino-6-(1,3-benzodioxole)picolinates and their use as herbicides” (Dow AgroSciences LLC, priority 2018, dated 2023).
# Legend:
# Type in all cases: in vivo
# [1] = system: IPOHE: ivyleaf morningglory (Ipomoea hederacea); assay: Post-emergent herbicidal test, ivyleaf morningglory; settings: post-emergence, 336 h, 14 days after application, read-out: Visual Growth Reduction (%) 14 Days After Application IPOHE; for pest or weed control at 17.5 g/ha: 17.5 g ai/ha; for pest or weed control at 35 g/ha: 35 g ai/ha; for pest or weed control at 70 g/ha: 70 g ai/ha; for pest or weed control at 140 g/ha: 140 g ai/ha
# Method in brief: (§1)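 Visual injury ratings (0 = no injury, 100% = complete kill) were made 14 d after post-emergence application versus untreated plants. Treatment: track-sprayer application at 187 L/ha to plants at first/second true leaf, in aqueous acetone/DMSO with crop oil concentrate and Triton X-155, as a high rate serially halved to 1/16×.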
# [2] = system: DIGSA: large crabgrass (Digitaria sanguinalis); assay: Post-emergent herbicidal test, large crabgrass; settings: post-emergence, 336 h, 14 days after application, read-out: Visual Growth Reduction (%) 14 Days After Application DIGSA; for pest or weed control at 17.5 g/ha: 17.5 g ai/ha; for pest or weed control at 35 g/ha: 35 g ai/ha; for pest or weed control at 70 g/ha: 70 g ai/ha; for pest or weed control at 140 g/ha: 140 g ai/ha
# Method in brief: as §1
# [3] = system: EPHHL: wild poinsettia (Euphorbia heterophylla); assay: Post-emergent herbicidal test, wild poinsettia; settings: post-emergence, 336 h, 14 days after application, read-out: Visual Growth Reduction (%) 14 Days After Application EPHHL; for pest or weed control at 17.5 g/ha: 17.5 g ai/ha; for pest or weed control at 35 g/ha: 35 g ai/ha; for pest or weed control at 70 g/ha: 70 g ai/ha; for pest or weed control at 140 g/ha: 140 g ai/ha
# Method in brief: as §1
# [4] = system: SETFA: giant foxtail (Setaria faberi); assay: Post-emergent herbicidal test, giant foxtail; settings: post-emergence, 336 h, 14 days after application, read-out: Visual Growth Reduction (%) 14 Days After Application SETFA; for pest or weed control at 17.5 g/ha: 17.5 g ai/ha; for pest or weed control at 35 g/ha: 35 g ai/ha; for pest or weed control at 70 g/ha: 70 g ai/ha; for pest or weed control at 140 g/ha: 140 g ai/ha
# Method in brief: as §1
# [5] = system: CIRAR: Canada thistle (Cirsium arvense); assay: Post-emergent herbicidal test, Canada thistle; settings: post-emergence, 336 h, 14 days after application, read-out: Visual Growth Reduction (%) 14 Days After Application CIRAR; for pest or weed control at 17.5 g/ha: 17.5 g ai/ha; for pest or weed control at 35 g/ha: 35 g ai/ha; for pest or weed control at 70 g/ha: 70 g ai/ha; for pest or weed control at 140 g/ha: 140 g ai/ha
# Method in brief: as §1
# [6] = system: ABUTH: velvetleaf (Abutilon theophrasti); assay: Post-emergent herbicidal test, velvetleaf; settings: post-emergence, 336 h, 14 days after application, read-out: Visual Growth Reduction (%) 14 Days After Application ABUTH; for pest or weed control at 17.5 g/ha: 17.5 g ai/ha; for pest or weed control at 35 g/ha: 35 g ai/ha; for pest or weed control at 70 g/ha: 70 g ai/ha; for pest or weed control at 140 g/ha: 140 g ai/ha
# Method in brief: as §1
# [7] = system: CYPES: yellow nutsedge (Cyperus esculentus); assay: Post-emergent herbicidal test, yellow nutsedge; settings: post-emergence, 336 h, 14 days after application, read-out: Visual Growth Reduction (%) 14 Days After Application CYPES; for pest or weed control at 17.5 g/ha: 17.5 g ai/ha; for pest or weed control at 35 g/ha: 35 g ai/ha; for pest or weed control at 70 g/ha: 70 g ai/ha; for pest or weed control at 140 g/ha: 140 g ai/ha
# Method in brief: as §1
# [8] = system: BRSNN: oilseed rape, canola (Brassica napus); assay: Post-emergent herbicidal test, oilseed rape; settings: post-emergence, 336 h, 14 days after application, read-out: Visual Growth Reduction (%) 14 Days After Application BRSNN; for pest or weed control at 17.5 g/ha: 17.5 g ai/ha; for pest or weed control at 35 g/ha: 35 g ai/ha; for pest or weed control at 70 g/ha: 70 g ai/ha; for pest or weed control at 140 g/ha: 140 g ai/ha
# Method in brief: as §1
# [9] = system: VIOTR: wild violet (Viola tricolor); assay: Post-emergent herbicidal test, wild violet; settings: post-emergence, 336 h, 14 days after application, read-out: Visual Growth Reduction (%) 14 Days After Application VIOTR; for pest or weed control at 17.5 g/ha: 17.5 g ai/ha; for pest or weed control at 35 g/ha: 35 g ai/ha; for pest or weed control at 70 g/ha: 70 g ai/ha; for pest or weed control at 140 g/ha: 140 g ai/ha
# Method in brief: as §1
# [10] = system: ECHCG: barnyardgrass (Echinochloa crus-galli); assay: Post-emergent herbicidal test, barnyardgrass; settings: post-emergence, 336 h, 14 days after application, read-out: Visual Growth Reduction (%) 14 Days After Application ECHCG; for pest or weed control at 17.5 g/ha: 17.5 g ai/ha; for pest or weed control at 35 g/ha: 35 g ai/ha; for pest or weed control at 70 g/ha: 70 g ai/ha; for pest or weed control at 140 g/ha: 140 g ai/ha
# Method in brief: as §1
# [11] = system: SORVU: shattercane (Sorghum bicolor); assay: Post-emergent herbicidal test, shattercane; settings: post-emergence, 336 h, 14 days after application, read-out: Visual Growth Reduction (%) 14 Days After Application SORVU; for pest or weed control at 17.5 g/ha: 17.5 g ai/ha; for pest or weed control at 35 g/ha: 35 g ai/ha; for pest or weed control at 70 g/ha: 70 g ai/ha; for pest or weed control at 140 g/ha: 140 g ai/ha
# Method in brief: as §1
smiles,measurement,setting,value
COC(=O)c1nc(-c2cccc3c2OC(F)(F)O3)c(F)c(N)c1Cl [Compound 4],pest or weed control at 17.5 g/ha,[1],0%
same,pest or weed control at 35 g/ha,[1],10%
same,pest or weed control at 70 g/ha,[1],10%
same,pest or weed control at 140 g/ha,[1],30%
same,pest or weed control at 17.5 g/ha,[2],0%
same,pest or weed control at 35 g/ha,[2],0%
same,pest or weed control at 70 g/ha,[2],0%
same,pest or weed control at 140 g/ha,[2],0%
same,pest or weed control at 17.5 g/ha,[3],0%
same,pest or weed control at 35 g/ha,[3],0%
same,pest or weed control at 70 g/ha,[3],0%
same,pest or weed control at 140 g/ha,[3],0%
same,pest or weed control at 17.5 g/ha,[4],0%
same,pest or weed control at 35 g/ha,[4],0%
same,pest or weed control at 70 g/ha,[4],0%
same,pest or weed control at 140 g/ha,[4],0%
same,pest or weed control at 17.5 g/ha,[5],80%
same,pest or weed control at 35 g/ha,[5],90%
same,pest or weed control at 70 g/ha,[5],95%
same,pest or weed control at 140 g/ha,[5],90%
same,pest or weed control at 17.5 g/ha,[6],70%
same,pest or weed control at 35 g/ha,[6],80%
same,pest or weed control at 70 g/ha,[6],80%
same,pest or weed control at 140 g/ha,[6],85%
same,pest or weed control at 17.5 g/ha,[7],0%
same,pest or weed control at 35 g/ha,[7],20%
same,pest or weed control at 70 g/ha,[7],50%
same,pest or weed control at 140 g/ha,[7],50%
same,pest or weed control at 17.5 g/ha,[8],85%
same,pest or weed control at 35 g/ha,[8],90%
same,pest or weed control at 70 g/ha,[8],95%
same,pest or weed control at 140 g/ha,[8],95%
same,pest or weed control at 17.5 g/ha,[9],0%
same,pest or weed control at 35 g/ha,[9],0%
same,pest or weed control at 70 g/ha,[9],20%
same,pest or weed control at 140 g/ha,[9],35%
same,pest or weed control at 17.5 g/ha,[10],0%
same,pest or weed control at 35 g/ha,[10],0%
same,pest or weed control at 70 g/ha,[10],0%
same,pest or weed control at 140 g/ha,[10],0%
same,pest or weed control at 17.5 g/ha,[11],0%
same,pest or weed control at 35 g/ha,[11],0%
same,pest or weed control at 70 g/ha,[11],0%
same,pest or weed control at 140 g/ha,[11],0%
Nc1c(F)c(-c2ccc(I)c3c2OC(F)(F)O3)nc(C(=O)O)c1Cl [Compound 12],pest or weed control at 17.5 g/ha,[1],0%
same,pest or weed control at 35 g/ha,[1],0%
same,pest or weed control at 70 g/ha,[1],0%
same,pest or weed control at 140 g/ha,[1],0%
same,pest or weed control at 17.5 g/ha,[2],0%
same,pest or weed control at 35 g/ha,[2],0%
same,pest or weed control at 70 g/ha,[2],0%
same,pest or weed control at 140 g/ha,[2],0%
same,pest or weed control at 17.5 g/ha,[3],0%
same,pest or weed control at 35 g/ha,[3],0%
same,pest or weed control at 70 g/ha,[3],0%
same,pest or weed control at 140 g/ha,[3],0%
same,pest or weed control at 17.5 g/ha,[4],0%
same,pest or weed control at 35 g/ha,[4],0%
same,pest or weed control at 70 g/ha,[4],0%
same,pest or weed control at 140 g/ha,[4],0%
same,pest or weed control at 17.5 g/ha,[5],65%
same,pest or weed control at 35 g/ha,[5],80%
same,pest or weed control at 70 g/ha,[5],85%
same,pest or weed control at 140 g/ha,[5],85%
same,pest or weed control at 17.5 g/ha,[6],0%
same,pest or weed control at 35 g/ha,[6],0%
same,pest or weed control at 70 g/ha,[6],70%
same,pest or weed control at 140 g/ha,[6],80%
same,pest or weed control at 17.5 g/ha,[7],0%
same,pest or weed control at 35 g/ha,[7],0%
same,pest or weed control at 70 g/ha,[7],0%
same,pest or weed control at 140 g/ha,[7],0%
same,pest or weed control at 17.5 g/ha,[8],70%
same,pest or weed control at 35 g/ha,[8],80%
same,pest or weed control at 70 g/ha,[8],90%
same,pest or weed control at 140 g/ha,[8],100%
same,pest or weed control at 17.5 g/ha,[9],0%
same,pest or weed control at 35 g/ha,[9],0%
same,pest or weed control at 70 g/ha,[9],0%
same,pest or weed control at 140 g/ha,[9],0%
same,pest or weed control at 17.5 g/ha,[10],0%
same,pest or weed control at 35 g/ha,[10],0%
same,pest or weed control at 70 g/ha,[10],0%
same,pest or weed control at 140 g/ha,[10],0%
same,pest or weed control at 17.5 g/ha,[11],0%
same,pest or weed control at 35 g/ha,[11],0%
same,pest or weed control at 70 g/ha,[11],0%
same,pest or weed control at 140 g/ha,[11],0%
